The source of these data is US20100240682A1, “PHOPHYLACTIC OR THERAPEUTIC AGENT FOR INFLAMATORY DISEASE COMPRISING THYMIDINE PHOSPHORYLASE INHIBITOR AS ACTIVE INGREDIENT” (TAIHO PHARMACEUTICAL CO., LTD., priority 2007, published 2010).

The subject of assay [1] is IL-6 production in human monocytes cell line U937. Description: IL-6 production by PMA/thymidine-stimulated U937 cells. The note with it: U937 after 10 ng/mL PMA and 10 μmol/L thymidine; 48 h after drug addition; vs control group. It is filed as cell-based. The procedure: Human monocytes cell line U937 were cultured using a 10% FBS RPMI 1640 medium (SIGMA-ALDRICH) at 37° C. under 5% CO2. Using a 24-well plate, U937 cells (1×10^5) were cultured for 24 hours in a medium containing 10 ng/mL phorbol-12-myristate-13-acetate (inflammatory substance, hereinafter abbreviated to as PMA) and 10 μmol/L thymidine in order for induction of inflammatory reaction. Twenty-four hours later, the medium was changed to fresh medium. To the drug administration group, TUPI or TPI was added. Forty-eight hours after the addition, the IL-6 level of each culture supernatant was determined by means of BioPlex (Bio-Rad Laboratories, Inc.).

For assay [2], the system named is rats having hydrochloric-acid-induced cystitis. In words: Hydrochloric-acid-induced cystitis model rat, bladder functions by cystometry. It is filed as in vivo. The settings on record: TPI 5, 50 or 100 mg/kg orally once a day for seven days; vs control group. Here is the method: To rats having hydrochloric-acid-induced cystitis serving as a cystitis model, 5-chloro-6-(2-iminopyrrolidin-1-yl)methyl-2,4(1H,3H)-pyrimidinedione hydrochloride (hereinafter abbreviated as “TPI”) (5, 50, or 100 mg/kg) was orally administered continuously for seven days, and the effect of TPI on bladder functions was evaluated. Specifically, 10-week-old SD rats were divided into groups (n=6) on the basis of body weight. To each of the rats of the control group and TPI administration groups, 0.4N HCl (0.2 mL) was intravesically administered once to the bladder under pentobarbital anesthesia (50 mg/kg, i.p.), to thereby induce a cystitis model. To a Sham group, saline (0.2 mL) was intravesically administered. From the day following the induction of cystitis model, distilled water for injection (5 mL/kg) was administered to the Sham and control groups, while distilled water for injection (5 mL/kg) containing TPI (5, 50, or 100 mg/kg) was administered to the TPI administration groups. In each case, the liquid was administered by forced oral administration once a day continuously for seven days. On the day following the final administration day, bladder functions (urination intervals and single urination output) of the rats of each group were evaluated through cystometry under anesthesia in accordance with a method described in BJU Int. 2007 October; 100(4): 935-9.

The test system is the same in assay [3]. In words: Hydrochloric-acid-induced rat interstitial cystitis model, histological changes of the bladder (HE staining). It is filed as in vivo. Here is the method:
To rats having hydrochloric-acid-induced cystitis serving as an interstitial cystitis model, TPI (50 or 500 mg/kg) was orally administered continuously for seven days, and the effect of TPI on pathological histological improvement of the bladder tissue was evaluated. Specifically, 10-week-old SD rats were divided into groups (n=6) on the basis of body weight. To each of the rats of a control group and TPI administration groups, 0.4N HCl (0.2 mL) was intravesically administered once to the bladder under pentobarbital anesthesia (50 mg/kg, i.p.), to thereby induce a cystitis model. To a Sham group, saline (0.2 mL) was intravesically administered. From the day following the induction of cystitis model, distilled water for injection (5 mL/kg) was administered to the Sham and control groups, while distilled water for injection (5 mL/kg) containing TPI (50 or 500 mg/kg) was administered to the TPI administration groups. In each case, the liquid was orally administered continuously once a day for seven days. On the day following the final administration day, the bladder was removed from each of the rats under ether anesthesia and washed with saline. Subsequently, the washed bladder was fixed with 20% buffered formalin and 10% buffered formalin, followed by HE staining. Histological changes of the bladder were observed. […]

Assay [4] has as its system collagen arthritis mice. Description: Collagen arthritis model mouse, arthritis score. The note with it: 500 mg/kg orally once a day; 11 to 14 days after second immunization. It is filed as in vivo. Here is the method: TPI (250 or 500 mg/kg) was orally administered to collagen arthritis mice (i.e., rheumatic model) continuously for 14 days, and the effect of TPI on edema of the limbs of each mouse was evaluated. Arthritis was induced in […] mice by type II collagen induction, and the mice were employed as a rheumatoid arthritis model. Specifically, type II collagen derived from bovine joint (K42, product of Collagen Gijyutsu Kensyukai) (200 μg) was suspended in Freund's complete adjuvant (DIFCO) (100 μL), and on day 1, the suspension was intradermally administered to the back of 8-week-old mice (DBA/1JN mice, Charles River Laboratories Japan Inc.). On day 21, type II collagen derived from bovine joint (K42) (200 μg) suspended in Freund's complete adjuvant (100 μL) was intradermally administered to the tail portion of each mice, to thereby induce an arthritis model. To the TPI administration groups, TPI (250 or 500 mg/kg/day) was orally administered continuously once a day during a period from day 21 to day 40. To the control, a solvent (0.5% aqueous HPMC) was administered instead of TPI according to the same administration schedule as employed in the TPI administration groups. […] The arthritis condition was evaluated on day 42; i.e., the day following the final administration day. […]

Assay [5] relates to rats in which ulcer had been induced by hydrochloric acid. In words: Hydrochloric-acid-induced acute gastritis model rat, gastric mucosal damage (lesion length). It is filed as in vivo. The settings on record: control 120.4±8.5 mm. The procedure:
TPI (100 or 200 mg/kg) was orally single-administered to rats in which ulcer had been induced by hydrochloric acid (i.e., an acute gastritis model), and the preventive effect of TPI on mucosal damage was evaluated. Specifically, 7-week-old female SD rats (Charles River Laboratories Japan Inc.) were fasted for about 18 hours. To the TPI administration groups, TPI (100 or 200 mg/kg) was orally administered, and after 30 minutes 0.6N HCl (5 mL/kg) was orally administered. To the control group, only 0.6N HCl (5 mL/kg) was orally administered. One hour after administration of hydrochloric acid, rats were euthanized through, and the stomach was removed from each rat. The tissue thereof was fixed with 1% formaline buffer, and the stomach was cut through the greater curvature. The longer diameter (mm) of a lesion was measured by means of an electronic caliper, and the total of the diameters was employed as an index for evaluating gastric mucosal damage.

The test system of assay [6] is concanavalin-A-induced hepatitis model mice. In words: Concanavalin-A-induced hepatitis model, serum AST and ALT. It is filed as in vivo, mouse. The note with it: TPI 100 mg/kg oral, 30 min before concanavalin A i.v., 24 h after. The procedure:
TPI (100 mg/kg) was orally single-administered to […] in which hepatitis had been induced by concanavalin A (i.e., a hepatitis model), and the inhibitory effect of TPI on hepatitis was evaluated. Specifically, 6-week-old female C57BL/6NCrlCrlj mice (Charles River Laboratories Japan Inc.) were employed. To the TPI administration group, TPI (100 mg/kg) was orally administered, and after 30 minutes 2 mg/mL concanavalin A (150 μL/animal) was intravenously administered through the tail vein. To the control group, only a vehicle was orally administered instead of TPI. […] The serum ALT level (IU/L) and AST level (IU/L) were determined as index for liver disorders.

Structures are written as SMILES.

As to `Nc1[nH]c(=O)[nH]c(=O)c1Cl` [TUPI, 5-chloro-6-aminouracil, reference compound], the “IL-6 level of culture supernatant” value in assay [1] is listed as “more significant suppression”.
As to `Cl.N=C1CCCN1Cc1[nH]c(=O)[nH]c(=O)c1Cl` [TPI, 5-chloro-6-(2-iminopyrrolidin-1-yl)methyl-2,4(1H,3H)-pyrimidinedione hydrochloride], the “bladder functions (urination interval, single urination output, effective vesical capacity, residual urine)” value in assay [2] was “improved in response to the administration amount”. Further, the “Entire bladder: Thickening/proliferation of transitional epithelium, number of samples” value was found to be 1 in assay [3] (TAS-111 (50), grade +); 2 in assay [3] (TAS-111 (50), grade ++); 0 in assay [3] (TAS-111 (50), grade +++); 1 in assay [3] (TAS-111 (500), grade +); 0 in assay [3] (TAS-111 (500), grade ++); 0 in assay [3] (TAS-111 (500), grade +++). Moreover, the “Lamina propria: Edema, number of samples” value in assay [3] (TAS-111 (50), grade +) was found to be 0; in assay [3] (TAS-111 (50), grade ++), 2; in assay [3] (TAS-111 (50), grade +++), 0; in assay [3] (TAS-111 (500), grade +), 0; in assay [3] (TAS-111 (500), grade ++), 1; in assay [3] (TAS-111 (500), grade +++) it was 0. Besides, the “Lamina propria: Infiltration of mast cells/eosinocytes, number of samples” value in assay [3] (TAS-111 (50), grade +) was determined as 1; in assay [3] (TAS-111 (50), grade ++) it was 2; in assay [3] (TAS-111 (50), grade +++), 0; in assay [3] (TAS-111 (500), grade +), 2; in assay [3] (TAS-111 (500), grade ++) it was 0; in assay [3] (TAS-111 (500), grade +++) it was 0. In addition, the “Tunica muscularis: Edema, number of samples” value in assay [3] (TAS-111 (50), grade +) was 2; in assay [3] (TAS-111 (50), grade ++) it was 0; in assay [3] (TAS-111 (50), grade +++), 0; in assay [3] (TAS-111 (500), grade +), 0; in assay [3] (TAS-111 (500), grade ++) it was 0; in assay [3] (TAS-111 (500), grade +++) it was 0. In addition, the “Tunica muscularis: Infiltration of mast cells/eosinocytes, number of samples” value in assay [3] (TAS-111 (50), grade +) worked out at 2; in assay [3] (TAS-111 (50), grade ++), 0; in assay [3] (TAS-111 (50), grade +++), 0; in assay [3] (TAS-111 (500), grade +), 0; in assay [3] (TAS-111 (500), grade ++), 0; in assay [3] (TAS-111 (500), grade +++), 0. In addition, the arthritis scores result in assay [4] is listed as “significant suppression”. Further, the “gastric mucosal damage (total of longer diameters of lesions)” value in assay [5] (TPI 100 mg/kg oral single dose 30 min before 0.6N HCl, significantly reduced) turned out to be 63.0±14.3 mm; in assay [5] (TPI 200 mg/kg oral single dose 30 min before 0.6N HCl) it was 76.1±18.3 mm. Also, the “serum AST level” value in assay [6] (control 4,506±864) is reported as 1,540±477 IU/L. In addition, the “serum ALT level” value in assay [6] (control 6,130±800) is 2,538±755 IU/L. In addition, the “IL-6 level of culture supernatant” value in assay [1] is reported as “more significant suppression”.
